Test results: the CheMixHub ionic liquid set
“And” between values parts separate entries of the source, which are not always exact repeats. Equal entries are not always repeated. ± gives the uncertainty stated by the source.

Assay: xn = mol fraction of the nth substance listed

CCCC[P+](CCCC)(CCCC)CCCC.F[B-](F)(F)F + CC#N
viscosity [mPa·s], 100 kPa
Conditions	293.15 K	298.15 K	303.15 K	308.15 K	313.15 K	318.15 K
x1 = 0.0005293	–	0.347 ± 0.007	–	–	–	–
x1 = 0.0007957	–	0.35 ± 0.007	–	–	–	–
x1 = 0.001066	–	0.353 ± 0.007	–	–	–	–
x1 = 0.001332	–	0.356 ± 0.007	–	–	–	–
x1 = 0.001602	–	0.36 ± 0.007	–	–	–	–
x1 = 0.001872	–	0.363 ± 0.007	–	–	–	–
x1 = 0.004186	0.373 ± 0.023	0.356 ± 0.022	0.341 ± 0.021	0.326 ± 0.02	0.313 ± 0.019	0.3 ± 0.018
x1 = 0.0082	0.395 ± 0.024	0.376 ± 0.023	0.359 ± 0.022	0.343 ± 0.021	0.329 ± 0.02	0.315 ± 0.019
x1 = 0.01203	0.415 ± 0.025	0.395 ± 0.024	0.376 ± 0.023	0.359 ± 0.022	0.344 ± 0.021	0.329 ± 0.02
x1 = 0.01623	0.439 ± 0.027	0.417 ± 0.025	0.398 ± 0.024	0.378 ± 0.023	0.362 ± 0.022	0.346 ± 0.021
x1 = 0.01997	0.462 ± 0.028	0.439 ± 0.027	0.417 ± 0.025	0.397 ± 0.024	0.379 ± 0.023	0.362 ± 0.022
x1 = 0.02402	0.489 ± 0.03	0.463 ± 0.028	0.441 ± 0.027	0.417 ± 0.025	0.399 ± 0.024	0.38 ± 0.023
x1 = 0.02784	0.514 ± 0.031	0.485 ± 0.029	0.459 ± 0.028	0.438 ± 0.027	0.417 ± 0.025	0.398 ± 0.024
x1 = 0.03177	0.539 ± 0.033	0.512 ± 0.031	0.484 ± 0.029	0.459 ± 0.028	0.437 ± 0.026	0.416 ± 0.025
x1 = 0.03555	0.565 ± 0.034	0.533 ± 0.032	0.505 ± 0.031	0.479 ± 0.029	0.456 ± 0.028	0.434 ± 0.026
x1 = 0.03928	0.597 ± 0.036	0.565 ± 0.034	0.533 ± 0.032	0.505 ± 0.031	0.48 ± 0.029	0.456 ± 0.028

CC[n+]1ccn(C)c1.N#C[S-] + CC[n+]1ccn(C)c1.CS(=O)(=O)[O-] + O
100 kPa, x1 = 1, x2 = 0
Conditions	viscosity [mPa·s]
298.15 K	23.91 ± 0.49
323.15 K	11.7 ± 0.24

COC(=O)OC + CCCCn1cc[n+](C)c1C.O=S(=O)([N-]S(=O)(=O)C(F)(F)F)C(F)(F)F
101.3 kPa, x2 = 0
Conditions	viscosity [mPa·s]
288.15 K	0.668 ± 0.015
293.15 K	0.628 ± 0.014
298.15 K	0.588 ± 0.013
303.15 K	0.553 ± 0.012
308.15 K	0.524 ± 0.011
313.15 K	0.498 ± 0.011

CCCC[P+](CCCC)(CCCC)CCCC.F[B-](F)(F)F + C1COCO1
298.15 K, 100 kPa
Conditions	viscosity [mPa·s]
x1 = 0.0007033	0.595 ± 0.009
x1 = 0.001051	0.6 ± 0.009
x1 = 0.001406	0.606 ± 0.009
x1 = 0.001753	0.613 ± 0.009
x1 = 0.002107	0.62 ± 0.009
x1 = 0.002453	0.627 ± 0.009

CCCCCCCCCCCCCC[P+](CCCCCC)(CCCCCC)CCCCCC.[Br-] + O
100 kPa, x2 = 0.68
Conditions	viscosity [mPa·s]
303.15 K	180.5 ± 3.2
353.15 K	22.85 ± 0.18

CC[n+]1ccn(C)c1.N#C[S-] + CC[n+]1ccn(C)c1.O=S(=O)([O-])C(F)(F)F
Conditions	viscosity [mPa·s]
293 K, 100 kPa, x1 = 0.5	36.4 ± 0.8

CC[n+]1ccn(C)c1.N#C[S-] + CCOS(=O)(=O)[O-].CC[n+]1ccn(C)c1
100 kPa
Conditions	electrical conductivity [S/m]	viscosity [mPa·s]
298.15 K, x1 = 0.67	1.16 ± 0.047	43.5 ± 2
308.15 K, x1 = 0.199	0.688 ± 0.028	61.2 ± 2.6
313.15 K, x1 = 0.429	1.19 ± 0.048	43.1 ± 1.9
318.15 K, x1 = 0.9505	3.6 ± 0.14	15.57 ± 0.73
323.15 K, x1 = 0.899	3.66 ± 0.15	13.3 ± 0.62
328.15 K, x1 = 0.429	–	22.05 ± 0.96
333.15 K, x1 = 0.32	–	22.93 ± 0.98
338.15 K, x1 = 0.899	–	9.45 ± 0.44
343.15 K, x1 = 0.32	–	17.43 ± 0.75
343.15 K, x1 = 0.429	–	14.75 ± 0.64
348.15 K, x1 = 0.9505	–	7.21 ± 0.34

CCCCCCCCn1cc[n+](C)c1.[Cl-] + OC[C@H]1O[C@@](CO)(O[C@H]2O[C@H](CO)[C@@H](O)[C@H](O)[C@H]2O)[C@@H](O)[C@@H]1O + O
298.15 K, 101.3 kPa
Conditions	electrical conductivity
x2 = 0, x1 = 4.96e-06	0.00314 ± 3e-05 S/m
x2 = 0, x1 = 7.53e-06	0.00467 ± 5e-05 S/m
x2 = 0, x1 = 1.002e-05	0.00613 ± 6e-05 S/m
x2 = 0, x1 = 1.247e-05	0.00756 ± 8e-05 S/m
x2 = 0, x1 = 1.481e-05	0.00893 ± 9e-05 S/m
x2 = 0, x1 = 1.716e-05	0.01029 ± 0.0001 S/m
x2 = 0, x1 = 1.95e-05	0.0116 ± 0.00012 S/m
x2 = 0, x1 = 2.177e-05	0.0129 ± 0.00013 S/m
x2 = 0, x1 = 2.424e-05	0.01436 ± 0.00014 S/m
x2 = 0, x1 = 2.667e-05	0.0158 ± 0.00016 S/m
x2 = 0, x1 = 2.939e-05	0.0173 ± 0.00017 S/m
x2 = 0.003591, x1 = 1.259e-05	0.00669 ± 7e-05 S/m
x2 = 0.003591, x1 = 1.587e-05	0.00832 ± 8e-05 S/m
x2 = 0.003591, x1 = 1.902e-05	0.00988 ± 0.0001 S/m
x2 = 0.003591, x1 = 2.222e-05	0.0114 ± 0.00012 S/m
x2 = 0.003591, x1 = 2.521e-05	0.0129 ± 0.00013 S/m
x2 = 0.003591, x1 = 2.835e-05	0.0144 ± 0.00015 S/m
x2 = 0.003591, x1 = 3.142e-05	0.0159 ± 0.00016 S/m
x2 = 0.003591, x1 = 3.424e-05	0.01727 ± 0.00017 S/m
x2 = 0.003591, x1 = 3.712e-05	0.0186 ± 0.00019 S/m
x2 = 0.007156, x1 = 1.254e-05	0.00531 ± 5e-05 S/m
x2 = 0.007156, x1 = 1.623e-05	0.00676 ± 7e-05 S/m
x2 = 0.007156, x1 = 1.993e-05	0.00821 ± 8e-05 S/m
x2 = 0.007156, x1 = 2.37e-05	0.00967 ± 0.0001 S/m
x2 = 0.007156, x1 = 2.738e-05	0.0111 ± 0.00011 S/m
x2 = 0.007156, x1 = 3.084e-05	0.01242 ± 0.00012 S/m
x2 = 0.007156, x1 = 3.403e-05	0.0137 ± 0.00014 S/m
x2 = 0.007156, x1 = 3.72e-05	0.0149 ± 0.00015 S/m
x2 = 0.007156, x1 = 4.042e-05	0.01608 ± 0.00016 S/m
x2 = 0.007156, x1 = 4.288e-05	0.01701 ± 0.00017 S/m
x2 = 0.0107, x1 = 8.12e-06	0.00311 ± 3e-05 S/m
x2 = 0.0107, x1 = 1.295e-05	0.00472 ± 5e-05 S/m
x2 = 0.0107, x1 = 1.756e-05	0.00623 ± 6e-05 S/m
x2 = 0.0107, x1 = 2.181e-05	0.00762 ± 8e-05 S/m
x2 = 0.0107, x1 = 2.602e-05	0.00898 ± 9e-05 S/m
x2 = 0.0107, x1 = 3.017e-05	0.0103 ± 0.0001 S/m
x2 = 0.0107, x1 = 3.408e-05	0.0115 ± 0.00012 S/m
x2 = 0.0107, x1 = 3.778e-05	0.0127 ± 0.00013 S/m
x2 = 0.0107, x1 = 4.136e-05	0.0138 ± 0.00014 S/m
x2 = 0.0107, x1 = 4.484e-05	0.0149 ± 0.00015 S/m
x2 = 0.0107, x1 = 4.818e-05	0.016 ± 0.00016 S/m
x2 = 0.01421, x1 = 9.43e-06	0.00302 ± 3e-05 S/m
x2 = 0.01421, x1 = 1.407e-05	0.00432 ± 4e-05 S/m
x2 = 0.01421, x1 = 1.861e-05	0.00559 ± 6e-05 S/m
x2 = 0.01421, x1 = 2.29e-05	0.00678 ± 7e-05 S/m
x2 = 0.01421, x1 = 2.718e-05	0.00795 ± 8e-05 S/m
x2 = 0.01421, x1 = 3.134e-05	0.00908 ± 9e-05 S/m
x2 = 0.01421, x1 = 3.512e-05	0.0101 ± 0.0001 S/m
x2 = 0.01421, x1 = 3.883e-05	0.0111 ± 0.00011 S/m
x2 = 0.01421, x1 = 4.258e-05	0.0121 ± 0.00012 S/m
x2 = 0.01421, x1 = 4.643e-05	0.01312 ± 0.00013 S/m
x2 = 0.0177, x1 = 7.66e-06	0.00219 ± 2e-05 S/m
x2 = 0.0177, x1 = 1.502e-05	0.00393 ± 4e-05 S/m
x2 = 0.0177, x1 = 2.194e-05	0.00554 ± 6e-05 S/m
x2 = 0.0177, x1 = 2.846e-05	0.00705 ± 7e-05 S/m
x2 = 0.0177, x1 = 3.471e-05	0.00848 ± 9e-05 S/m
x2 = 0.0177, x1 = 4.134e-05	0.00996 ± 0.0001 S/m
x2 = 0.0177, x1 = 4.728e-05	0.01128 ± 0.00011 S/m
x2 = 0.0177, x1 = 5.36e-05	0.0127 ± 0.00013 S/m
x2 = 0.0177, x1 = 5.928e-05	0.0139 ± 0.00014 S/m
x2 = 0.0177, x1 = 6.496e-05	0.01517 ± 0.00015 S/m
x2 = 0.02116, x3 = 0.9788	0.0133 S/m and 0.0143 S/m

CCCCCCCCCCCC[N+](C)(C)Cc1ccccc1.O=S(=O)([N-]S(=O)(=O)C(F)(F)F)C(F)(F)F + CCCCO
101 kPa
Conditions	viscosity [mPa·s]
298.15 K, x1 = 1	1425 ± 200
303.15 K, x1 = 0.3015	34.1 ± 3.4
308.15 K, x1 = 0.3015	27.3 ± 2.7
308.15 K, x1 = 1	683 ± 88
313.15 K, x1 = 0.7485	198 ± 22
318.15 K, x1 = 0.1507	7.45 ± 0.75
318.15 K, x1 = 0.4494	37.6 ± 3.8
328.15 K, x1 = 0.9164	159 ± 17
333.15 K, x1 = 0.1507	4.83 ± 0.48
333.15 K, x1 = 0.4494	20.6 ± 2.1
333.15 K, x1 = 0.594	40.9 ± 4.1
338.15 K, x1 = 0.7485	63 ± 6.3
338.15 K, x1 = 1	118 ± 12
343.15 K, x1 = 0.7485	52.4 ± 5.3
348.15 K, x1 = 0.594	25.2 ± 2.5
